Reference: publication doi:10.1101/2025.07.24.666388, “Small Molecule Activators of Protein Phosphatase 2A Exert Global Stabilising Effects on the Scaffold PR65” (bioRxiv, 2025)

Target: T1, PR65 (PP2A scaffold subunit A) (Homo sapiens, UniProt P30153)
T1 construct: gene PPP2R1A; WT PR65, 15 HEAT repeats (GST tag cleaved); ybbR-tagged PR65 for optical tweezers
Experiment: fluorescence polarisation (PR65 titrated into fluorescent ATUX-8385); also nanoDSF shift and optical tweezers
Format: binding

T1 sequence (P30153 2-589): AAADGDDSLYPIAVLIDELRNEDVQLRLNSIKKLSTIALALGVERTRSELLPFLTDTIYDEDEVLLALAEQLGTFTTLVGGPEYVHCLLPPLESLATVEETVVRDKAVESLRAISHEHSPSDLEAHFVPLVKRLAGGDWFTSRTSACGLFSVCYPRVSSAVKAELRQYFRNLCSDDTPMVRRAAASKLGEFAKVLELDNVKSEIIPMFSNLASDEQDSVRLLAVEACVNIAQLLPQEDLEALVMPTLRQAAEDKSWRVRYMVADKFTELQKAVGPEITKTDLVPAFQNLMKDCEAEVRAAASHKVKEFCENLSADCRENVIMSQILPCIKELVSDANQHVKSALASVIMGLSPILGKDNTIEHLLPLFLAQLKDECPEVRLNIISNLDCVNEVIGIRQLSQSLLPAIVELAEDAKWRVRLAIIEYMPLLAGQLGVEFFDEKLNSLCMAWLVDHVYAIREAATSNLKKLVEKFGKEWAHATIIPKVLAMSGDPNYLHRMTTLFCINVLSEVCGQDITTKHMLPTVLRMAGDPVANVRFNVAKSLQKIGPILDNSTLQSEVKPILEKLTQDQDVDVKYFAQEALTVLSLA

Kd: 4.7 ± 1.1 µM
SMILES: O=S(=O)(NC1CNCC(n2c3ccc(F)cc3c3cc(F)ccc32)C1O)c1ccc(OC(F)(F)F)cc1 (stereo not shown) [ATUX-8385]
